Consider 28 molecules from US8618095B2 (Rigel Pharmaceuticals, Inc., priority 2010, dated 2013).

Structures can show the parent of a compound that is named as a salt.

The first assay relates to Human mast cells (CHMC). Nature of the assay: LD Tryptase release assay in CHMC (mast cell activation induced by FcγR cross-linking). In kind it is cell-based. As to conditions: Homo sapiens, Mast cell, anti-IgG stimulation, activity of tryptase released upon degranulation. An outline of the steps: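 Mast cells derived from CD38-negative progenitors were preincubated 1 h at 37 °C with compound in HEPES-buffered saline (pH 7.4, 0.1% BSA, compound diluted in buffer with 2% MeOH/1% DMSO). Cells were then stimulated 60 min with anti-human IgG (final 1 μg/mL). Released tryptase was measured on Z-Ala-Lys-Arg-AMC (30 min, room temperature, 355/460 nm) to give the IC50.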
On to `CC1(C)CN(c2ccc(Nc3ncc(F)c(Nc4ccc5c(n4)NC(=O)C4(CCC4)O5)n3)cc2)CCO1` [Compound 124, N2-[4-(2,2-Dimethylmorpholino)phenyl]-5-fluoro-N4-(3′-oxo-3′,4′-dihydrospiro[cyclobutane-1,2′-pyrido[3,2-b][1,4]oxazine]-6-yl)-2,4-pyrimidinediamine], for which the 50% inhibitory concentration (IC50) was in the range of 1000 to 100000 nM.

`CN(C[C@H]1CCCO1)c1ccc(Nc2ncc(F)c(Nc3ccc4c(n3)NC(=O)C(C)(C)O4)n2)cn1` [Compound 111]: the IC50 fell in the range of 100 to 500 nM. As for `CC1(C)Oc2ccc(Nc3nc(Nc4ccc(N5C[C@@H]6C[C@H]5CO6)cc4)ncc3F)nc2NC1=O` [Compound 38, N4-(2,2-dimethyl-3,4-dihydro-3-oxo-2H-pyrido[3,2-b][1,4]oxazin-6-yl)-5-fluoro-N2-[4-((1S,4S)-5-oxa-2-aza-bicyclo[2.2.1]heptan-2-yl)phenyl]-2,4-pyrimidinediamine], the half-maximal inhibitory concentration (IC50) is below 100 nM. In the case of `O=C1Nc2nc(Nc3nc(Nc4ccc(N5CCOCC5)cc4)ncc3F)ccc2OC12CCC2` [Compound 123, 5-Fluoro-N2-(4-morpholinophenyl)-N4-(3′-oxo-3′,4′-dihydrospiro[cyclobutane-1,2′-pyrido[3,2-b][1,4]oxazine]-6-yl)-2,4-pyrimidinediamine], the half-maximal inhibitory concentration (IC50) was 100 to 500 nM.

With `CC1(C)Oc2ccc(Nc3nc(Nc4ccc(N5CCC6(CC5)COC6)cc4)ncc3F)nc2NC1=O` [Compound 158, N4-(2,2-dimethyl-3,4-dihydro-3-oxo-2H-pyrido[3,2-b][1,4]oxazin-6-yl)-5-fluoro-N2-[4-(2-oxa-7-azaspiro[3.5]nonan-7-yl)phenyl]-2,4-pyrimidinediamine], the IC50 fell in the range of 100 to 500 nM. For `O=C1COc2ccc(Nc3nc(Nc4ccc(N5CCOCC5=O)cc4)ncc3F)nc2N1` [Compound 39], the IC50 lay in the range of 100 to 500 nM. In the case of `C[C@@H]1CN(c2ccc(Nc3ncc(F)c(Nc4ccc5c(n4)NC(=O)CO5)n3)cn2)CCO1` [Compound 6, N4-(3,4-dihydro-3-oxo-2H-pyrido[3,2-b][1,4]oxazin-6-yl)-5-fluoro-N2-[6-((2R)-2-methylmorpholino)pyridin-3-yl]-2,4-pyrimidinediamine], the IC50 was below 100 nM.

Take `CCOCC1COCCN1c1ccc(Nc2ncc(F)c(Nc3ccc4c(n3)NC(=O)C(C)(C)O4)n2)cn1` (stereo not shown) [Compound 59, N4-(2,2-dimethyl-3,4-dihydro-3-oxo-2H-pyrido[3,2-b][1,4]oxazin-6-yl)-5-fluoro-N2-[6-(3-(ethoxymethyl)morpholino)pyridin-3-yl]-2,4-pyrimidinediamine]: the IC50 was 100 to 500 nM.

Regarding `CN(C[C@@H]1CCCO1)c1ccc(Nc2ncc(F)c(Nc3ccc4c(n3)NC(=O)CO4)n2)cn1` [Compound 108, N4-(3,4-dihydro-3-oxo-2H-pyrido[3,2-b][1,4]oxazin-6-yl)-5-fluoro-N2-[6-(((S)-methyl(tetrahydrofuran-2-yl)methyl)amino)pyridin-3-yl]-2,4-pyrimidinediamine], the IC50 was in the range of 100 to 500 nM. Turning to `CN1CCN(c2ccc(Nc3ncc(F)c(Nc4ccc5c(n4)NC(=O)CO5)n3)cn2)CC1` [Compound 19, N4-(3,4-dihydro-3-oxo-2H-pyrido[3,2-b][1,4]oxazin-6-yl)-5-fluoro-N2-[6-(4-methylpiperazin-1-yl)pyridin-3-yl]-2,4-pyrimidinediamine], the IC50 lay within 1000 to 100000 nM. Turning to `CC1(C)CN(c2ccc(Nc3ncc(F)c(Nc4ccc5c(n4)NC(=O)CO5)n3)cc2)CCO1` [Compound 115, N4-(3,4-dihydro-3-oxo-2H-pyrido[3,2-b][1,4]oxazin-6-yl)-N2-[4-(2,2-dimethylmorpholino)phenyl]-5-fluoro-2,4-pyrimidinediamine], the IC50 was below 100 nM. For the molecule `Cc1cc(Nc2ncc(F)c(Nc3ccc4c(n3)NC(=O)C(C)(C)O4)n2)ccc1N1CCC2(CCOC2)CC1` [Compound 159, N4-(2,2-dimethyl-3,4-dihydro-3-oxo-2H-pyrido[3,2-b][1,4]oxazin-6-yl)-5-fluoro-N2-[3-methyl-4-(2-oxa-8-azaspiro[4.5]decan-8-yl)phenyl]-2,4-pyrimidinediamine], the IC50 lay in the range of 500 to 1000 nM. In the case of `O=C1COc2ccc(Nc3nc(Nc4ccc(N5CCOCC5)nc4)ncc3F)nc2N1` [Compound 5, N4-(3,4-dihydro-3-oxo-2H-pyrido[3,2-b][1,4]oxazin-6-yl)-5-fluoro-N2-[6-morpholinopyridin-3-yl]-2,4-pyrimidinediamine], the half-maximal inhibitory concentration (IC50) is 100 to 500 nM. The same measure, in the same setting: the result for `COc1cc(Nc2ncc(F)c(Nc3ccc4c(n3)NC(=O)CO4)n2)ccc1N1CCOCC1` [Compound 33, N4-(3,4-dihydro-3-oxo-2H-pyrido[3,2-b][1,4]oxazin-6-yl)-5-fluoro-N2-[3-methoxy-4-morpholinophenyl]-2,4-pyrimidinediamine] reads below 100 nM.

For `CCOC[C@@H]1CN(c2ccc(Nc3ncc(F)c(Nc4ccc5c(n4)NC(=O)CO5)n3)cn2)CCO1` [Compound 100, N4-(3,4-dihydro-3-oxo-2H-pyrido[3,2-b][1,4]oxazin-6-yl)-N2-[6-(((2S)-2-ethoxymethyl)morpholino)pyridin-3-yl]-5-fluoro-2,4-pyrimidinediamine], the half-inhibitory concentration (IC50) is 100 to 500 nM.

As to `CC1(C)Oc2ccc(Nc3nc(Nc4ccc(N5CCOCC5)c(OC(F)(F)F)c4)ncc3F)nc2NC1=O` [Compound 28, N4-(2,2-dimethyl-3,4-dihydro-3-oxo-2H-pyrido[3,2-b][1,4]oxazin-6-yl)-5-fluoro-N2-[3-trifluoromethoxy-4-morpholinophenyl]-2,4-pyrimidinediamine], the IC50 is above 100000 nM. With `C[C@H]1COCCN1c1ccc(Nc2ncc(F)c(Nc3ccc4c(n3)NC(=O)CO4)n2)cc1` [Compound 119, N4-(3,4-dihydro-3-oxo-2H-pyrido[3,2-b][1,4]oxazin-6-yl)-5-fluoro-N2-[4-((3S)-3-methylmorpholino)phenyl]-2,4-pyrimidinediamine], the 50% inhibitory concentration (IC50) was below 100 nM. As to `C[C@H]1COCCN1c1ccc(Nc2ncc(F)c(Nc3ccc4c(n3)NC(=O)C(C)(C)O4)n2)cn1` [Compound 138, N4-(2,2-dimethyl-3,4-dihydro-3-oxo-2H-pyrido[3,2-b][1,4]oxazin-6-yl)-5-fluoro-N2-[6-((3S)-3-methylmorpholino)pyridin-3-yl]-2,4-pyrimidinediamine], the IC50 was in the range of 100 to 500 nM.

In the case of `CC1(C)Oc2ccc(Nc3nc(Nc4ccc(N5CCC(N)CC5)cc4)ncc3F)nc2NC1=O` [Compound 90, N4-(2,2-dimethyl-3,4-dihydro-3-oxo-2H-pyrido[3,2-b][1,4]oxazin-6-yl)-5-fluoro-N2-[4-(4-aminopiperidin-1-yl)phenyl]-2,4-pyrimidinediamine], the 50% inhibitory concentration (IC50) was 100 to 500 nM. For the molecule `CC1(C)Oc2ccc(Nc3nc(Nc4ccc(N5CCC(O)CC5)nc4)ncc3F)nc2NC1=O` [Compound 52, N4-(2,2-dimethyl-3,4-dihydro-3-oxo-2H-pyrido[3,2-b][1,4]oxazin-6-yl)-5-fluoro-N2-[6-(4-hydroxypiperidin-1-yl)pyridin-3-yl]-2,4-pyrimidinediamine], the IC50 was below 100 nM.

As to `CCOC[C@H]1CN(c2ccc(Nc3ncc(F)c(Nc4ccc5c(n4)NC(=O)CO5)n3)cn2)CCO1` [Compound 102, N4-(3,4-dihydro-3-oxo-2H-pyrido[3,2-b][1,4]oxazin-6-yl)-N2-[6-(((2R)-2-ethoxymethyl)morpholino)pyridin-3-yl]-5-fluoro-2,4-pyrimidinediamine], the IC50 was in the range of 100 to 500 nM. Same read-out and setting: to `O=C1COc2ccc(Nc3nc(Nc4ccc(N5CC[C@H](O)C5)nc4)ncc3F)nc2N1` [Compound 63, N4-(3,4-dihydro-3-oxo-2H-pyrido[3,2-b][1,4]oxazin-6-yl)-5-fluoro-N2-[6-((3S)-3-hydroxypyrrolidin-1-yl)pyridin-3-yl]-2,4-pyrimidinediamine] belongs 100 to 500 nM; to `Cc1cc(Nc2ncc(F)c(Nc3ccc4c(n3)NC(=O)C(C)(C)O4)n2)cnc1N1CCOCC1` [Compound 13, N4-(2,2-dimethyl-3,4-dihydro-3-oxo-2H-pyrido[3,2-b][1,4]oxazin-6-yl)-5-fluoro-N2-[5-methyl-6-morpholinopyridin-3-yl]-2,4-pyrimidinediamine], below 100 nM; to `Cc1cc(Nc2ncc(F)c(Nc3ccc4c(n3)NC(=O)CO4)n2)cnc1N1CCOCC1` [Compound 11, N4-(3,4-dihydro-3-oxo-2H-pyrido[3,2-b][1,4]oxazin-6-yl)-5-fluoro-N2-[5-methyl-6-morpholinopyridin-3-yl]-2,4-pyrimidinediamine], below 100 nM. Consider `CCCN1C(=O)COc2ccc(Nc3nc(Nc4ccc(N5CCOCC5)c(C(F)(F)F)c4)ncc3F)nc21` [Compound 148, N4-(3,4-dihydro-3-oxo-4-propyl-2H-pyrido[3,2-b][1,4]oxazin-6-yl)-5-fluoro-N2-[4-morpholino-3-(trifluoromethyl)phenyl]-2,4-pyrimidinediamine], for which the IC50 is below 100 nM.

Staying with this assay, now noted: Mast cell, anti-IgG stimulation, activity of tryptase released upon degranulation.
With `CC1(C)Oc2ccc(Nc3nc(Nc4ccc(N5CCOCC5)cc4)ncc3F)nc2N(COP(=O)(O)O)C1=O` [Compound 2, N4-(2,2-dimethyl-3,4-dihydro-4-[(dihydrogenphosphonoxy)methyl]-3-oxo-2H-pyrido[3,2-b][1,4]oxazin-6-yl)-5-fluoro-N2-(4-morpholinophenyl)-2,4-pyrimidinediamine], the half-inhibitory concentration (IC50) was in the range of 1000 to 100000 nM.

Staying with this assay, now noted: anti-IgG stimulation, activity of tryptase released upon degranulation.
As for `CC1(C)Oc2ccc(Nc3nc(Nc4ccc(N5CCOCC5)nc4)ncc3F)nc2N(COP(=O)(O)O)C1=O` [Compound 4, N4-(2,2-dimethyl-3,4-dihydro-4-[(dihydrogenphosphonoxy)methyl]-3-oxo-2H-pyrido[3,2-b][1,4]oxazin-6-yl)-5-fluoro-N2-(6-morpholinopyridin-3-yl)-2,4-pyrimidinediamine disodium salt], the concentration for half-maximal inhibition (IC50) was 1000 to 100000 nM. With `CC1(C)Oc2ccc(Nc3nc(Nc4ccc(N5CCOCC5)nc4)ncc3F)nc2NC1=O` [Compound 142, N4-(2,2-dimethyl-3,4-dihydro-3-oxo-2H-pyrido[3,2-b][1,4]oxazin-6-yl)-5-fluoro-N2-[6-morpholinopyridin-3-yl]-2,4-pyrimidinediamine ethanesulfonic acid salt], the 50% inhibitory concentration (IC50) is 100 to 500 nM.
